The results in this text go back to US5187165A, “Memory enhancing and analgesic 1,2,3a,8,8a-hexahydro-3a,8(and 1,3a,8)-di(and tri)methylpyrrolo[2,3-b]indoles” (priority 1988, dated 1993).

Assay [1] concerns 2-phenyl-1,4-benzoquinone-induced writhing. The assay is described as follows: 2-phenyl-1,4-benzoquinone-induced writhing (PQW) test. The conditions noted are these: mice; for ED50: Mus musculus, read-out: ANALGESIC ACTIVITY (ED50), PQW. Format: in vivo. An excerpt:
Compounds I of the present invention are also useful as analgesic agents due to their ability to alleviate pain in mammals. […] Exptl. Biol. Med., 95,729 (1957)] and in modified Haffner's analgesia.

Assay [2] concerns pressure stress by artery clip on tail. As to the kind of experiment: Modified Haffner's Analgesia. To be noted: sc; for ANALGESIC ACTIVITY (ED50), Modified Haffner's Analgesia: mice, peak time of drug activity; for ED50: Mus musculus, read-out: ANALGESIC ACTIVITY (ED50), Modified Haffner's Analgesia, mice, sc, peak time of drug activity. Format: in vivo, mice. An excerpt: The latter assay is used to evaluate analgesic activity by measuring drug-induced changes in the sensitivity of mice to pressure stress by placing an artery clip (21/2 inches long) on their tail. The procedure used is a modification of the test developed by Haffner, Dtsch. Med. Wschr., 55, 731 (1929), and it is described below.
Male mice (Charles River, CD-1) from 18-30 grams are used for the test. An artery clip is applied to the root of the tail of a mouse (approximately 1/2 inch from the body) to induce pain. The animal quickly responds to this noxious stimuli by biting the clip or the location of the clip. This reaction time, the interval between stimulus onset and response, is recorded in 1/10-second increments by a stop watch.
For a time response, the screening dose (25 mg/kg) is administered subcutaneously (10 ml/kg) to the animal receiving food and water ad libitum before testing. Animals receiving the compound orally are fasted 18-24 hours before drug administration. Drug to be tested is prepared with distilled water and if insoluble, one drop of a surfactant is added.
Twenty-eight animals (seven/group) are administered the drug 15, 30, 45 and 60 minutes prior to testing.
The cut-off time (CO) is determined by taking the (x) average +(3) standard (SD) deviations of the combined response latencies of the control mice in all time periods.
Any reaction time, in subsequent drug tests, which is greater than the CO (for the same time period) therefore exceeds 99% of a normal Gaussian distribution and is called "positive response" indicative of analgesic activity. A time response indicates the period of greatest analgesic effect after dosing. The ED50 is determined at the peak time of drug activity. A minimum of three dose groups are used. ED50 's are calculated using computer analysis.

Assay [3] has as its target T1, acetylcholinesterase (Brain AChE) (Rattus norvegicus, UniProt P37136).
T1 construct: corpora striata dissected free, weighed and homogenized in 19 volumes; from tissue; host or cells: corpora striata of male Wistar rats, crude homogenate in phosphate buffer
T1 sequence (P37136 32-614): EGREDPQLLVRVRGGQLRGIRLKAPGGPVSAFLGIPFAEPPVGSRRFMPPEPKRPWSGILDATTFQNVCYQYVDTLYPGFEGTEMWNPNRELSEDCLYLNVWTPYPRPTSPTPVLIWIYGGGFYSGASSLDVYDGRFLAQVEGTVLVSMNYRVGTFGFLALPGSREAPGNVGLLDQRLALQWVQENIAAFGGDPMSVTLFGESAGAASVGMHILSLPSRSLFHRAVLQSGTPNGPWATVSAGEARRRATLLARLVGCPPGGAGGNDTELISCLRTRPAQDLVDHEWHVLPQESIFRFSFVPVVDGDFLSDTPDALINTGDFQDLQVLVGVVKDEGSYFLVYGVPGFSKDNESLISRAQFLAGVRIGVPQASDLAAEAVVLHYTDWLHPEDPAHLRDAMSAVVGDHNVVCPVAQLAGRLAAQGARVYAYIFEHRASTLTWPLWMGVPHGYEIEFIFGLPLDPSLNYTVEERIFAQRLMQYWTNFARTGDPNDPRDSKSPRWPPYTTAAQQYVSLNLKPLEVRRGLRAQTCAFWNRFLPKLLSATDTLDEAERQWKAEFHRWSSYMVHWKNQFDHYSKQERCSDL
As to the kind of experiment: In Vitro Inhibition of Acetylcholinesterase Activity in Rat Striatum. Format: biochemical. The source says: Cholinesterases are found throughout the body, both in the brain and in serum. However, only brain acetylcholinesterase (AChE) distribution is correlated with central cholinergic innervation. […] We have determined in vitro inhibition of acetylcholinesterase activity in rat striatum and in vitro inhibition of butrylcholinesterase activity in human serum according to the methods described below.
The method described below was used in this invention for assaying cholinesterase activity. This is a modification of the method of Ellman et al., Biochem. Pharmacol. 7, 98 (1961).
1. 0.05M Phosphate buffer, pH 7.2
(a) 9.9 mg 5,5-dithiobisnitrobenzoic acid (DTNB) (0.25 mM)
(b) 99 mg s-acetylthiocholine chloride (5 mM)
(c) q.s. to 100 ml with 0.05M phosphate buffer, pH 7.2 (reagent 1)
Male Wistar rats are decapitated, brains rapidly removed, corpora striata dissected free, weighed and homogenized in 19 volumes (approximately 7 mg protein/ml) of 0.05M phosphate buffer, pH 7.2 using a Potter-Elvehjem homogenizer. A 50 microliter aliquot of the homogenate is added to 50 microliter vehicle of various concentrations of the test drug and preincubated for 10 minutes at room temperature.
1. For routine IC50 determinations the Abbott Bichromatic Analyzer, ABA-100, is used to determine acetylcholinesterase activity.
Incubation temperature: 30° C.
Following the 10 minute preincubation of the tissue (enzyme) with the inhibitor, the samples are mixed with the substrate chromogen buffer by the ABA-100. Using the indicated instrument settings the ABA-100 automatically reads the color reaction and prints out the results in enzyme units after 15 minutes.
2. The enzyme activity can also be measured with Gilford 250 spectrophotometer. This method is used for more accurate kinetic measurments.
Reagents are added to the reference and sample side of a split curvette as follows.
The uninhibited activity of the enzyme (tissue homogenate) is first determined. Test drugs are made up in a suitable solvent and added in suitable dilutions to the buffer vehicle. The reaction rate is determined by the slope of the recorded absorbance change. The actual rate (moles/liter/min) can be calculated as described in the following formula
rate(moles/liter/min)=slope/(1.36×10^4).

For assay [4], the system named is scopolamine-induced memory deficit. The assay is described as follows: Dark Avoidance Assay (scopolamine induced memory deficit reversal). The conditions noted are these: Mus musculus, sc, 24 h, read-out: % of Animals with Scopolamine Induced Memory Deficit Reversal. Format: in vivo, mice. The procedure: In this assay mice are tested for their ability to remember an unpleasant stimulus for a period of 24 hours. A mouse is placed in a chamber that contains a dark compartment; a strong incandescent light drives it to the dark compartment, where an electric shock is administered through metal plates on the floor. The animal is removed from the testing apparatus and tested again, 24 hours later, for the ability to remember the electric shock.
If scopolamine, an anticholinergic that is known to cause memory impairment, is administered before an animal's initial exposure to the test chamber, the animal re-enters the dark compartment shortly after being placed in the test chamber 24 hours later. This effect of scopolamine is blocked by an active test compound, resulting in a greater interval before re-entry into the dark compartment.
The results for an active compound are expressed as the percent of a group of animals in which the effect of scopolamine is blocked, as manifested by an increased interval between being placed in the test chamber and re-entering the dark compartment.

Counter-ions that a name gives are not always drawn. Like-named read-outs stand apart in the source and are kept apart here.

With `CN1CC[C@@]2(C)c3cc(O)cc(Br)c3N(C)[C@@H]12` (relative stereo) [7-bromo-1,2,3,3a,8,8a-hexahydro-1,3a,8-trimethylpyrrolo[2,3-] [7-Bromo-1,2,3,3a,8,8a-hexahydro-1,3a,8-trimethylpyrrolo[2,3-b]indol-5-ol], the “ANALGESIC ACTIVITY (ED50), PQW” value was 0.33 mg/kg in assay [1] (po) and 0.17 mg/kg in assay [1] (sc). Also, the “ANALGESIC ACTIVITY (ED50), Modified Haffner's Analgesia” value in assay [2] is on record as 0.22 mg/kg.
As for `Cc1cc(O)cc2c1N(C)[C@H]1N(C)CC[C@@]21C` (relative stereo) [(3aS-cis)-1,2,3,3a,8,8a-Hexahydro-1,3a,7,8-tetramethylpyrrolo[2,3-b]indol-5-ol], the ED50 in assay [1] (sc, sc) came to 0.22 mg/kg; in assay [2] it was 0.31 mg/kg.
The like results for `CN1CC[C@@]2(C)c3cc(OC(=O)C(C)(C)C)cc(Br)c3N(C)[C@@H]12.Cl` (relative stereo) [(3aS-cis)-7-Bromo-1,2,3,3a,8,8a-hexahydro-1,3a,8-trimethylpyrrolo[2,3-b]indol-5-ol, trimethylacetate hydrochloride] were, in that order, 0.8 mg/kg and 0.6 mg/kg.
On to `CN1CC[C@@]2(C)c3cc(O)cc(Br)c3N(C)[C@@H]12` (relative stereo) [(3aS-cis)-7-Bromo-1,2,3,3a, 8,8a-hexahydro-1,3a,8-trimethylpyrrolo[2,3-b]indol-5-ol], for which the 50% effective dose (ED50) in assay [1] (po, po) amounted to 0.36 mg/kg.
Turning to `CN1CC[C@@]2(C)c3cc(O)cc(Br)c3N(C)[C@@H]12` (relative stereo) [(3aS-cis)-7-bromo-1,2,3,3a,8,8a-hexahydro-1,3a,8-trimethylpy] [(3aS-cis)-7-Bromo-1,2,3,3a, 8,8a-hexahydro-1,3a,8-trimethylpyrrolo[2,3-b]indol-5-ol], the “ANALGESIC ACTIVITY (ED50), PQW” value in assay [1] (sc) is on record as 0.041 mg/kg. The “ANALGESIC ACTIVITY (ED50), Modified Haffner's Analgesia” value in assay [2] is reported as 0.55 mg/kg.
Regarding `C=CCN1CCC2(C)c3cc(O)ccc3N(C)C12` (centres unmarked) [1,2,3,3a,8,8a-Hexahydro-3a,8-dimethyl-1-(2-propenyl)-pyrrolo[2,3-b]indol-5-ol salicylate], the median effective dose (ED50) in assay [1] (sc, sc) turned out to be 3.9 mg/kg; in assay [2], 2.56 mg/kg.
The corresponding values for `CCN1CCC2(C)c3cc(O)cc(Br)c3N(C)C12` (centres unmarked) [7-Bromo-1-ethyl-1,2,3,3a,8,8a-hexahydro-3a,8-dimethylpyrrolo[2,3-b]indol-5-ol salicylate] are 2.52 mg/kg and 1.94 mg/kg.
The compound `CNC(=O)Oc1cc(C)c2c(c1)[C@]1(C)CCN(C)[C@@H]1N2C` [(3aS-cis)-1,2,3,3a,8,8a-Hexahydro-1,3a,7,8-tetramethylpyrrolo[2,3-b]indol-5-ol, methyl carbamate ester] came in with an IC50 in assay [3] of 12 nM.
For the compound `CC(=O)Oc1cc([N+](=O)[O-])c2c(c1)[C@]1(C)CCN(C)[C@@H]1N2C` [(3aS-cis)-1,2,3,3a,8,8a-Hexahydro-1,3a,8-trimethyl-7-nitropyrrolo[2,3-b]indol-5-ol acetate fumarate], the 50% effective dose (ED50) in assay [1] (sc, sc) was determined as 1.5 mg/kg; in assay [2], 3.6 mg/kg.
As to `CCN(CC)C(=O)Oc1cc2c(cc1Br)N(C)[C@H]1N(C)CC[C@@]21C` [(3aS-cis)-6-bromo-1,2,3,3a,8,8a-hexahydro-1,3a,8-trimethylpyrrolo[2,3-b]indol-5-ol, N,N-diethyl carbamate ester], in assay [4], the responders at 5 mg/kg is 40%.
Take `CN1CC[C@@]2(C)c3cc(O)ccc3N(C)[C@@H]12` [eseroline salicylate, reference compound]: the ED50 in assay [1] (sc, sc) was 0.52 mg/kg; in assay [2], 0.18 mg/kg.

In general, ED50 refers to the midpoint of the dose-response relation. By IC50 is commonly meant the point on the concentration scale where inhibition reaches its midpoint. Higher therefore signals a need for much substance.
